Measured values published in US20150368242A1, “NOVEL TETRAHYDROPYRIDOPYRIMIDINONE DERIVATIVE” (Ajinomoto Co., Inc., priority 2013, published 2015).
Several values for one entry are separate records, joined by “and”; a condition that tells them apart may be missing. Equal values may be shown once. Where a name gives a salt, the structure may show the parent alone. Read-outs that look alike come from different tables or passages of the source.

Key:
[1] = biological target: T1, recombinant human MGAT2 enzyme (Homo sapiens, UniProt Q3SYC2); experiment: Test for human MGAT2 activity inhibitory action (14C-oleoyl CoA, recombinant enzyme microsomes); type: biochemical; design: key to Potency relative to Comparative Example 1 (higher = more potent): % inhibition = {1−(C−B)/(A−B)}×100, B = 10 μM Comparative Example 1
T1 construct: made in house; host or cells: CHO-K1 (Jump-In CHO-K1 Kit, Life Technologies); microsomal fraction used as the enzyme solution
T1 sequence (Q3SYC2 whole entry): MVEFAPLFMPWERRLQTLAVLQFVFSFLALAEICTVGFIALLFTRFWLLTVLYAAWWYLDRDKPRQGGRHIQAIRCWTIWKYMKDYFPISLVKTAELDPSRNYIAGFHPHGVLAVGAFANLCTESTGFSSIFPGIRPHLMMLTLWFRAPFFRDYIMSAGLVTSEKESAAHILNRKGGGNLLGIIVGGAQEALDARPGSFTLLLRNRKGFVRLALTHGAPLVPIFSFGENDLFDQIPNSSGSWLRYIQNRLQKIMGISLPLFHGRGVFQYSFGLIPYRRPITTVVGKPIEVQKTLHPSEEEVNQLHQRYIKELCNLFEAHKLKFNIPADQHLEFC
In short: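 Microsomes from CHO-K1 cells expressing human MGAT2 (0.67 μg/mL) reacted 30 min at 37 °C with 50 μM 2-monooleoyl glycerol, 50 μM oleoyl CoA, 2.2 μM 1-14C-oleoyl CoA and 8.3 μM orlistat in 50 mM Tris pH 7.4, 6 mM MgCl2, 2 mg/mL BSA, 0.3% DMSO. Heptane-extracted 14C counted; inhibition normalized between no-compound and 10 μM reference-compound controls.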

[2] = tested on: orally lipid-loaded mouse model (C57BL/6J mice); experiment: Test for lipid absorption inhibitory action (orally lipid-loaded mouse model); type: in vivo; settings: for Lipid absorption inhibition ratio (%): plasma neutral fat AUC up to 6 hours after corn oil
Experimental: The lipid absorption inhibitory action of the compounds of Examples 5 and 60 and the compound of Comparative Example 1 was examined in an orally lipid-loaded mouse model. In this test, 10 to 11-week old male C57BL/6J mice (CLEA Japan, Inc.) were used. After the mice were fasted for 17 hours from the preceding day, blood was collected from the fundus, and further the mice were subjected to forced oral administration of one of the compounds or the medium (0.5% methyl cellulose). Thirty minutes after the administration, tyloxapol (500 mg/kg) was administered into the tail vein, and corn oil (200 μl) was orally administered (n=5-6). Blood was collected via the tail vein 2, 4, and 6 hours after the administration of corn oil, and plasma was obtained by centrifuging the blood. The neutral fat concentration in the plasma was measured by using Triglyceride E-Test Wako (Wako Pure Chemical Industries, Ltd.). The neutral fat concentration in the plasma before the administration of the compound was taken as the value at 0 hours, and the area under the curve (AUC) of the neutral fat concentration in the plasma up to 6 hours after the administration of corn oil was calculated. From the average value of the AUC of each administration group, the lipid absorption inhibition ratio was obtained by using the following formula.
Lipid absorption inhibition ratio (%)=(Average value of AUC of medium administration group-Average value of AUC of compound administration group)/Average value of AUC of medium administration group×100

[3] = Table 5, Examples 25 to 60, same method, read-out: IC50
[4] = Table 5, relative to Comparative Example 1 measured in the same run

Structure (SMILES) | IC50 [1, 3] | Potency relative to Comparative Example 1 (higher = more potent) [1, 4] | also measured
COc1ccc(CNc2nc3c(c(=O)n2-c2ccccc2)CN(C(=O)Nc2ccc(C(F)(F)F)cc2)CC3)cc1 [Comparative Example 1, reference compound] | – | – | IC50 ([1]; First Test (Table 3), read-out: IC50): 223 nM; IC50 ([1]; Second Test (Table 4), read-out: IC50): 303 nM; IC50 ([1]; Table 5, Comparative Example 1 measured alongside the Example, read-out: IC50 (nM) of Comp. Ex. 1): 210 nM and 170 nM and 150 nM and 140 nM and 295 nM and 137 nM and 180 nM and 250 nM and 300 nM and 270 nM and 240 nM and 260 nM and 160 nM and 244 nM and 200 nM; Lipid absorption inhibition ratio (%) ([2]; Test 1, 30 mg/kg oral): 34%; Lipid absorption inhibition ratio (%) ([2]; Test 1, 100 mg/kg oral): 44%; Lipid absorption inhibition ratio (%) ([2]; Test 2, 100 mg/kg oral): 41%
O=C(CNCCCCCNc1ccc(C(F)(F)F)cc1)N1CCc2nc(SC3CCC3)n(-c3ccccc3)c(=O)c2C1 [Example 55, 2-cyclobutylsulfanyl-3-phenyl-6-[2-[5-[4-(trifluoromethyl)anilino]pentylamino]acetyl]-7,8-dihydro-5H-pyrido[4,3-d]pyrimidin-4-one trifluoroacetate] | < 1 nM | >207 | –
O=C(CCNCc1nnc(Cc2ccc(C(F)(F)F)cc2)o1)N1CCc2nc(SC3CCC3)n(-c3ccccc3)c(=O)c2C1 [Example 56, 2-cyclobutylsulfanyl[-3-phenyl-6-[3-[5-[[4-(trifluoromethyl)phenyl]methyl]-1,3,4-oxadiazol-2-yl]methylamino]propanoyl]-7,8-dihydro-5H-pyrido[4,3-d]pyrimidin-4-one trifluoroacetate] | 5.8 nM | 35 | –
O=C(CNCCCCCOC1CCCCC1)N1CCc2nc(SC3CCC3)n(-c3ccccc3)c(=O)c2C1 [Example 57, 2-cyclobutylsulfanyl-6-[2-[5-(cyclohexoxy)pentylamino]acetyl]-3-phenyl-7,8-dihydro-5H-pyrido[4,3-d]pyrimidin-4-one trifluoroacetate] | 2.6 nM | 81 | –
O=C(CNCCCCCOC1CCC(F)(F)CC1)N1CCc2nc(SC3CCC3)n(-c3ccccc3)c(=O)c2C1 [Example 58, 2-cyclobutylsulfanyl-6-[2-[5-(4,4-difluorocyclohexoxy)pentylamino]acetyl]-3-phenyl-7,8-dihydro-5H-pyrido[4,3-d]pyrimidin-4-one trifluoroacetate] | 3.3 nM | 63 | –
O=C(CCNCC#CCOc1ccc(C(F)(F)F)cc1)N1CCc2nc(SC3CCC3)n(-c3ccccc3)c(=O)c2C1 [Example 59, 2-cyclobutylsulfanyl-3-phenyl-6-[3-[4-[4-(trifluoromethyl)phenoxy]but-2-ynylamino]propanoyl]-7,8-dihydro-5H-pyrido[4,3-d]pyrimidin-4-one trifluoroacetate] | 2.2 nM | 117 | –
O=C(CCNCC1COc2ccccc2O1)N1CCc2nc(SC3CCC3)n(-c3ccccc3)c(=O)c2C1 (centres unmarked) [Example 60, 2-cyclobutylsulfanyl-6-[3-(2,3-dihydro-1,4-benzodioxin-3-ylmethylamino)propanoyl]-3-phenyl-7,8-dihydro-5H-pyrido[4,3-d]pyrimidin-4-one trifluoroacetate] | – | – | IC50 ([1]; IC50 (nM), Table 5, Examples 25 to 60, same method): 1.1 nM; vs Comp. Ex. 1 [1, 4]: 140; lipid absorption inhibitory action (in words) ([2]; 30 mg/kg, Comparative Example 1 at 100 mg/kg): comparable to that of the compound of Example 5; Lipid absorption inhibition ratio (%) ([2]; Test 3, 30 mg/kg oral): 42%
